Results on one molecule are retold here after patent US20090062382A1, “EXTERNAL PREPARATION FOR IMPROVING COITAL FUNCTION” (CARDIOVASCULAR INSTITUTE, LTD., priority 2003, published 2009).

Molecules are shown by their SMILES.

The test concerns penis. Put plainly: Clinical study: penile temperature change by thermography. To be noted: intra-urethral infusion; FIG. 7. It counts as in vivo, human. On the procedure:
Five (5) healthcare workers of 60 to 69 years old having no early-morning erection were subjected to the study. After obtaining verbal informed consent, the study was carried out from May 2001 through February 2003 as described below.
After keeping the subjects at rest with naked from the waist down for 5 minutes at room temperature of 25° C. and humidity of 60%, temperature of a penis, oxygen saturation in a penile sponge body, and hardness of a penis were measured. The measurement was carried out before administration of the preparation as reference and at 1, 3, 6, 12, 24 and 36 hours after administration, and the value of change (changed value±average error) were recorded. When there was no change at 3 hours after administration, the preparation was considered not effective and measurement thereafter was quitted.
Embrocation: 0.5 ml of each preparation was applied all over to a glans and a penis.
The relevant infusion apparatus was inserted into a urethra, and 0.5 ml of the preparation was infused by rotating a cylinder.
Temperature rise reflects increased blood-flow. So, penile temperature was measured by a thermography (Thermo Tracer TH5108, NEC San-ei Instruments, Ltd.). As this instrument can display a measurement site and temperature of the site numerically on a screen, measurements before and after administrations were possible to be performed at the same position. […]

On to `CC#CCC(C)[C@H](O)/C=C/[C@@H]1[C@H]2c3cccc(CCCC(=O)[O-])c3O[C@H]2C[C@H]1O.[Na+]` (relative stereo) [beraprost sodium, (+)-(1R*,2R*,3aS*,8bS*)-2,3,3a,8b-tetrahydro-2-hydroxy-1-[(e)-(3S*)-3-hydroxy-4-methyl-1-octene-6-ynyl]-1H-cyclopenta [b]benzofuran-5-butanoic acid sodium salt], for which the “level and duration of temperature increase” value was “low”.
